Results reported in paper PMC9198545, “Pharmacokinetics and Pharmacodynamics of Fungal Defensin NZX Against Staphylococcus aureus-Induced Mouse Peritonitis Model” (Frontiers in Microbiology, 2022).
Where a SMILES comes first, the peptide text is derived from it. Bridges are numbered along the chain shown (N, C = ends).

What was measured:
[1] = Stability in mouse serum by RP-HPLC; format: in vitro ADME; settings: 25% mouse serum spiked with 100 μg/ml NZX, 37°C, peak area ratio to initial time, read-out: peptide remaining intact
Method: The stability of NZX in the mouse serum was determined when placed at 37°C (Wang et al., [2020]). The stock mixture from 25% serum was spiked with 100 μg/ml NZX and vortexed well. The mixtures were incubated at 37°C. At 0, 4, 8, 12, and 24 h, samples were taken out, extracted, and analyzed by reverse-phase high-performance liquid chromatography (RP-HPLC). The results were expressed as the ratio of the peak area of the peptide at various times to that of the initial incubation time.

[2] = Serum protein binding by ultrafiltration; format: in vitro ADME, mouse; settings: murine serum, ultrafiltration with Centrifree Filters, ultrafiltrate by HPLC
Method: (§1) The 6-week-old, specific-pathogen-free, female ICR mice (starting weight, 23 to 27 g) were purchased from Beijing Vital River Laboratory Animal Technology Co., Ltd (Beijing, China). The animals were acclimatized for 2 to 3 days before the experiment. The pharmacokinetics of NZX was evaluated in uninfected female ICR mice that received a single tail vein NZX dose of 5, 10, or 20 mg/kg, respectively. After NZX administration, blood samples were collected by orbital venous from five mice per time point at 0.083 to 2 h intervals over 6 h. After centrifugation at 4,000 rpm for 20 min at 4°C, the serum was immediately separated and frozen at −80°C until analysis. Analyses of total serum concentrations of NZX were conducted by a microbiologic assay using S. aureus ATCC 6538p (CICC 10307) as the test strain (Andes et al., [2009]). […] The protein binding of NZX in serum was measured by the ultrafiltration method using Centrifree Filters (Merck Millipore Ltd., Product code: 4104), according to previously described methods by Brinch et al. ([2009]). The concentration of NZX in the ultrafiltrate was determined by HPLC methods.

[3] = Pharmacokinetics in non-infected mice, single tail vein dose; format: in vivo, mouse; settings: for T1/2, terminal elimination half-life / AUC, area under concentration-time curves / Cmax, peak concentration / MRT, mean residence time / Vd, apparent distribution volume: free-serum NZX; for T1/2, terminal elimination half-life: non-infected female ICR mice, microbiologic assay, non-compartment model; for AUC, area under concentration-time curves / Cmax, peak concentration / MRT, mean residence time / Vd, apparent distribution volume: non-infected mice
Method: as §1
The pharmacokinetic parameters of NZX in the serum were analyzed using a non-compartment model by WinNonlin software (version 8.1; Pharsight, USA). GraphPad Prism (version 9.0.1) was used for all statistical analyses. One-way ANOVA followed by Dunnett's test was performed to compare the difference between groups. A P-value <0.05 was considered as the significant difference. Kaplan Meier analysis was conducted for the survival curve; log-rank (Mantel-Cox) test analyses were used to compare the survival rate difference.

S. aureus E48 = test: PK/PD index determination, dose fractionation, sigmoidal Emax model; format: in vivo, mouse
Method: A dose fractionation study was applied to determine the PK/PD parameters of ƒAUC/MIC, ƒCmax/MIC, and ƒT% > MIC, and those parameters were predictive of efficacies for NZX against S. aureus E48. […] The correlations between efficacies and each PK/PD index were analyzed by non-linear least-squares regression based on the sigmoidal Emax model (Hill's equation) (Yu et al., [2016]). Hill's equation was defined as follows:
E =[…] × Ce^N/EC50N + Ce^N
where E is the observed antibacterial effect, which describes the change of log10 CFU/ml in the peritoneal fluid after 24 h of NZX treatment compared to the colony counts at the start of therapy. Emax is the change of log10 CFU/ml in the peritoneal fluid after 24 h of NZX treatment when the maximum antibacterial effect has been reached. E0 is the change of log10 CFU/ml in the peritoneal fluid between initial therapy and after 24 h therapy in untreated control animals. Ce is defined as the three PK/PD parameters (ƒAUC/MIC ratio, ƒCmax/MIC ratio, and ƒT % > MIC). EC50 is the value of the PK/PD parameter that is required to achieve 50% of the maximum antibacterial effect. N is the steepness of the fitted concentration-response curve. The coefficient of determination (R^2) between efficacy and the PK/PD parameters was used for determining the goodness of fit of the curves. In addition, the parameters required to achieve bacterial stasis (Cs), 1 log10 kill, and 2 log10 kill were calculated interpolation or extrapolation based on Hill's equation.

[4] = free NZX in serum, tail vein 5, 10, 20 mg/kg, range over doses
[5] = 5 mg/kg, 1 dose in 24 h, total dose 0.125 mg
[6] = 5 mg/kg, 2 doses in 24 h, total dose 0.25 mg
[7] = 10 mg/kg, 1 dose in 24 h, total dose 0.25 mg
[8] = 10 mg/kg, 2 doses in 24 h, total dose 0.5 mg
[9] = 20 mg/kg, 1 dose in 24 h, total dose 0.5 mg
[10] = 20 mg/kg, 2 doses in 24 h, total dose 1 mg

## CC[C@H](C)[C@@H]1NC(=O)[C@H](CO)NC(=O)[C@H](CCCCN)NC(=O)[C@@H]2CSSC[C@@H](C(=O)N[C@@H](Cc3ccc(O)cc3)C(=O)O)NC(=O)[C@H](CCCCN)NC(=O)[C@@H]3CSSC[C@H](NC(=O)[C@H](CCC(N)=O)NC(=O)[C@H]([C@@H](C)CC)NC(=O)[C@H](CC(=O)O)NC(=O)[C@H](CC(=O)O)NC(=O)[C@H](CCC(=O)O)NC(=O)[C@H](CO)NC(=O)[C@H](Cc4c[nH]c5ccccc45)NC(=O)[C@@H]4CCCN4C(=O)CNC(=O)[C@H](CC(N)=O)NC(=O)[C@@H](NC(=O)CNC(=O)[C@H](Cc4ccccc4)NC(=O)CN)CSSC[C@H](NC(=O)[C@H](Cc4ccc(O)cc4)NC(=O)CNC(=O)CNC(=O)[C@H](CCCCN)NC(=O)[C@H](Cc4ccc(O)cc4)NC(=O)CNC(=O)[C@H](CCCCN)NC1=O)C(=O)N[C@@H](C)C(=O)N[C@@H](CCCNC(=N)N)C(=O)NCC(=O)NCC(=O)N[C@@H](Cc1ccccc1)C(=O)N[C@@H](C(C)C)C(=O)N3)C(=O)N[C@@H](Cc1c[nH]cn1)C(=O)N[C@@H](CC(N)=O)C(=O)N[C@@H](Cc1c[nH]cn1)C(=O)N2 [NZX] (H-GFGCNGPWSEDDIQCHNHCKSIKGYKGGYCARGGFVCKCY-OH; disulfide 4-30, 15-37, 19-39)
[1]
  remaining at 24 h, 100 μg/ml: 97%
[2]
  Protein binding: 89.25%
[3]; after intravenous administration, 5, 10, 20 mg/kg
  time at which peak concentrations (Cmax) were observed: 5 min
[3]; [4]
  Cmax over the three dose levels: 2850 to 20550 ng/mL
  T1/2 over the three dose levels: 19.2 to 30 min
  Vd over the three dose levels: 1.4691 to 2.0739 L/kg
[3]; single intravenous 5 mg/kg, five mice per time point
  T1/2, terminal elimination half-life: 19.2 min
[3]; single intravenous 5 mg/kg
  AUC, area under concentration-time curves: 1110 ng·h/mL
  Cmax, peak concentration: 2850 ng/mL
  MRT, mean residence time: 19.2 min
  Vd, apparent distribution volume: 2.0739 L/kg
[3]; single intravenous 10 mg/kg
  T1/2, terminal elimination half-life: 30 min
  AUC, area under concentration-time curves: 3540 ng·h/mL
  Cmax, peak concentration: 6530 ng/mL
  MRT, mean residence time: 38.4 min
  Vd, apparent distribution volume: 2.04541 L/kg
[3]; single intravenous 20 mg/kg
  T1/2, terminal elimination half-life: 27 min
  AUC, area under concentration-time curves: 8890 ng·h/mL
  Cmax, peak concentration: 20550 ng/mL
  MRT, mean residence time: 33.6 min
  Vd, apparent distribution volume: 1.4691 L/kg
S. aureus E48; [5]
  fAUC/MIC: 1.11
  fT > MIC: 0.33 h
S. aureus E48; [6]
  fAUC/MIC: 2.22
  fT > MIC: 0.67 h
S. aureus E48; [7]
  fAUC/MIC: 3.54
  fT > MIC: 0.94 h
S. aureus E48; [8]
  fAUC/MIC: 7.08
  fT > MIC: 1.88 h
S. aureus E48; [9]
  fAUC/MIC: 8.89
  fT > MIC: 2.05 h
S. aureus E48; [10]
  fAUC/MIC: 17.79
  fT > MIC: 4.09 h
